{
  "source": "patent US6106856A",
  "about": "(The Board of Governors for Higher Education, State of Rhode …, priority 1995, dated 2000)",
  "key": {"[1]": {"assay": "Permeation through heat-separated human epidermis (Franz-diffusion cell)", "format": "in vitro ADME", "protocol": "(§1) […] of this solution was given on heat-separated human epidermis (breast, area 4.5 cm^2) which was mounted on a Franz-diffusion cell. The cell was filled with 23 ml of a mixture of 60 parts of a 0.9% NaCl-solution and 40 parts of polyethylene glycol 400 (v/v)."}, "[2]": {"settings": "cited from earlier work"}, "[3]": {"assay": "Recrystallization of applied saturated drug solution during the permeation experiment", "format": "physicochemical", "settings": "applied crystal-free", "protocol": "as §1"}},
  "data": [
    {"smiles": "COC(=O)C1=C(C)NC(C)=C(C(=O)OC)C1c1ccccc1[N+](=O)[O-]", "note": "[Nifedipine]", "values": [
      {"measurement": "Flux", "setting": "[1]; 8 h column", "value": 0.35, "unit": "μg/cm *h"},
      {"measurement": "Flux", "setting": "[1]; 24 h column", "value": 7.44, "unit": "μg/cm *h"},
      {"measurement": "Flux", "setting": "[1]; 32 h column", "value": 6.13, "unit": "μg/cm *h"},
      {"measurement": "Flux", "setting": "[1]; 48 h column", "value": 12.29, "unit": "μg/cm *h"},
      {"measurement": "correlation of hypotensive and untoward side effects with plasma concentration", "setting": "[2]; clinical studies", "value": "correlated with the plasma nifedipine concentration"},
      {"measurement": "variation of transient, high plasma levels", "setting": "[2]; oral administration of conventional capsules", "value": "may vary by tenfold"},
      {"measurement": "interindividual variability of plasma levels", "setting": "[2]; oral administration", "value": "Extraordinary interindividual variability"},
      {"measurement": "heart rate and blood pressure effect on rapid increase of plasma concentration", "setting": "[2]; rapid increase of plasma nifedipine concentration", "value": "marked increase in heart rate and little effect on blood pressure"}
    ]},
    {"smiles": "COCCOC(=O)C1=C(C)NC(C)=C(C(=O)OC(C)C)C1c1cccc([N+](=O)[O-])c1", "note": "(stereo not shown) [Nimodipine]", "values": [
      {"measurement": "recrystallization during the experiment", "setting": "[3]", "value": "recrystallization"}
    ]},
    {"smiles": "O=[N+]([O-])OCC(CO[N+](=O)[O-])O[N+](=O)[O-]", "note": "[nitroglycerin]", "values": [
      {"measurement": "tolerance observed in patients", "setting": "[2]; transdermal nitroglycerin", "value": "tolerance observed in patients"}
    ]}
  ]
}
